Data from ChEMBL document CHEMBL5131567, “3,5,7-Substituted Pyrazolo[4,3-d]Pyrimidine Inhibitors of Cyclin-Dependent Kinases and Cyclin K Degraders” (J Med Chem, 2022).
Activity calls are given as the source filed them. No cut-off for these calls is given here.

Tests used:
[1] = molecular target: Cyclin-dependent kinase 2/G1/S-specific cyclin-D1 (Homo sapiens, UniProt P24385+P24941); format: cell-based, Sf9
MINO [2] = test: Induction of apoptosis in human MINO cells assessed as reduction in mcl-1 levels at 2.5 to 40 nM measured after 24 hrs by immunoblotting analysis; format: functional, cell-based; conditions: dose 2.5-40 nM
[3] = molecular target: Cyclin-dependent kinase 13/Cyclin-K (Homo sapiens, UniProt Q14004); test: Inhibition of GST-tagged human CDK13/Cyclin K expressed in Sf9 cells using RBER-IRStide peptide as substrate in presence of ATP and [gamma33-P] ATP by radioisotope filter binding assay
OCI-LY19 = test: Antiproliferative activity against human OCILY19 cells assessed as cell growth inhibition measured after 72 hrs by resazurin dye based microplate reader analysis; format: functional
[4] = molecular target: Cyclin-dependent kinase 2/cyclin E1 (Homo sapiens, UniProt P24941); test: Inhibition of His-tagged CDK2/cyclin E1 (unknown origin) expressed in Sf9 cells using histone H1 as substrate in presence of ATP and [gamma33-P]ATP by radioisotope filter binding assay; format: cell-based
MINO [5] = test: Downregulation of RB levels in human MINO cells incubated for 24 hrs by immunoblotting analysis; format: functional, cell-based; conditions: dose 2.5-40 nM, DDE = dose-dependent effect
[6] = Antiproliferative activity against human Ri-1 cells assessed as cell growth inhibition measured after 72 hrs by resazurin dye based microplate reader analysis; format: functional
CDK12/Cyclin K = CDK12/Cyclin K (Homo sapiens, UniProt Q9NYV4); test: Inhibition of GST-tagged human CDK12/Cyclin K expressed in Sf9 cells using RBER-IRStide peptide as substrate in presence of ATP and [gamma33-P] ATP by radioisotope filter binding assay
MINO [7] = test: Inhibition of CDK in human MINO cells assessed as dephosphorylation of C-terminus of RNA polymerase II at serine 5 incubated for 2 hrs by immunoblotting analysis; format: cell-based; conditions: dose 0.005-5 µM, DDE = dose-dependent effect
MINO [8] = test: Downregulation of cyclin K levels in human MINO cells at 5 nM incubated for 2 hrs by immunoblotting analysis; format: functional, cell-based
[9] = Antiproliferative activity against human MINO cells assessed as cell growth inhibition measured after 72 hrs by resazurin dye based microplate reader analysis; format: functional
MINO [10] = test: Downregulation of cyclin K levels in human MINO cells at 50 nM incubated for 2 hrs by immunoblotting analysis; format: functional, cell-based
SUD4 = test: Antiproliferative activity against human SU-DHL-4 cells assessed as cell growth inhibition measured after 72 hrs by resazurin dye based microplate reader analysis; format: functional
MINO [11] = test: Downregulation of cyclin D1 levels in human MINO cells incubated for 24 hrs by immunoblotting analysis; format: functional, cell-based; conditions: dose 2.5-40 nM, DDE = dose-dependent effect
[12] = Antiproliferative activity against human UPF1H cells assessed as cell growth inhibition measured after 72 hrs by resazurin dye based microplate reader analysis; format: functional
VFN-D2 [13] = test: In vivo induction of degradation of cyclin K in patient-derived VFN-D2 cells xenografted in NSG mouse assessed as reduction in cyclin K levels at 0.1 to 10 mg/kg, ip measured after 24 hrs by immunoblotting analysis; format: functional, organism-based; conditions: dose 0.1-10 mg/kg
MINO [14] = test: Induction of degradation of cyclin K in human MINO cells coexpressing DDB1 with siRNA assessed as stabilization of cyclin K levels at 100 nM measured after 1 hrs by immunoblotting analysis; format: functional, cell-based
DB = test: Antiproliferative activity against human DB cells assessed as cell growth inhibition measured after 72 hrs by resazurin dye based microplate reader analysis; format: functional
MINO [15] = test: Inhibition of CDK in human MINO cells assessed as dephosphorylation of C-terminus of RNA polymerase II at serine 2 incubated for 2 hrs by immunoblotting analysis; format: cell-based; conditions: dose 0.005-5 µM, DDE = dose-dependent effect
MINO [16] = test: Downregulation of CDK4 levels in human MINO cells incubated for 24 hrs by immunoblotting analysis; format: functional, cell-based; conditions: dose 2.5-40 nM, DDE = dose-dependent effect
NU-DUL-1 = test: Antiproliferative activity against human NU-DUL-1 cells assessed as cell growth inhibition measured after 72 hrs by resazurin dye based microplate reader analysis; format: functional
MINO [17] = test: Induction of apoptosis in human MINO cells assessed as reduction in XIAP levels at 2.5 to 40 nM measured after 24 hrs by immunoblotting analysis; format: functional, cell-based; conditions: dose 2.5-40 nM
U2932 = test: Antiproliferative activity against human U2932 cells assessed as cell growth inhibition measured after 72 hrs by resazurin dye based microplate reader analysis; format: functional
CDK9/cyclin T1 = CDK9/cyclin T1 (Homo sapiens, UniProt P50750); test: Inhibition of GST-tagged human CDK9/Cyclin T1 expressed in Sf9 cells using (YSPTSPS)2KK peptide as substrate in presence of ATP and [gamma33-P] ATP by radioisotope filter binding assay; format: cell-based
MINO [18] = test: Downregulation of mcl-1 levels in human MINO cells incubated for 2 hrs by immunoblotting analysis; format: functional, cell-based; conditions: dose 2.5-40 nM, DDE = dose-dependent effect
VFN-D2 [19] = test: In vivo induction of degradation of cyclin K in patient-derived VFN-D2 cells xenografted in NSG mouse assessed as reduction in CDK12 levels at 0.1 to 10 mg/kg, ip measured after 24 hrs by immunoblotting analysis; format: functional, organism-based; conditions: dose 0.1-10 mg/kg
[20] = Antiproliferative activity against human OCI-Ly2 cells assessed as cell growth inhibition measured after 72 hrs by resazurin dye based microplate reader analysis; format: functional
[21] = Inhibition of GST-tagged human CDK5/p25 expressed in Sf9 cells using histone H1 as substrate in presence of ATP and [gamma33-P] ATP by radioisotope filter binding assay
MINO [22] = test: Inhibition of CDK in human MINO cells assessed as dephosphorylation of retinoblastoma protein incubated for 2 hrs by immunoblotting analysis; format: cell-based; conditions: dose 0.005-5 µM, DDE = dose-dependent effect

Chain of CDK9/cyclin T1 (O60563 whole entry): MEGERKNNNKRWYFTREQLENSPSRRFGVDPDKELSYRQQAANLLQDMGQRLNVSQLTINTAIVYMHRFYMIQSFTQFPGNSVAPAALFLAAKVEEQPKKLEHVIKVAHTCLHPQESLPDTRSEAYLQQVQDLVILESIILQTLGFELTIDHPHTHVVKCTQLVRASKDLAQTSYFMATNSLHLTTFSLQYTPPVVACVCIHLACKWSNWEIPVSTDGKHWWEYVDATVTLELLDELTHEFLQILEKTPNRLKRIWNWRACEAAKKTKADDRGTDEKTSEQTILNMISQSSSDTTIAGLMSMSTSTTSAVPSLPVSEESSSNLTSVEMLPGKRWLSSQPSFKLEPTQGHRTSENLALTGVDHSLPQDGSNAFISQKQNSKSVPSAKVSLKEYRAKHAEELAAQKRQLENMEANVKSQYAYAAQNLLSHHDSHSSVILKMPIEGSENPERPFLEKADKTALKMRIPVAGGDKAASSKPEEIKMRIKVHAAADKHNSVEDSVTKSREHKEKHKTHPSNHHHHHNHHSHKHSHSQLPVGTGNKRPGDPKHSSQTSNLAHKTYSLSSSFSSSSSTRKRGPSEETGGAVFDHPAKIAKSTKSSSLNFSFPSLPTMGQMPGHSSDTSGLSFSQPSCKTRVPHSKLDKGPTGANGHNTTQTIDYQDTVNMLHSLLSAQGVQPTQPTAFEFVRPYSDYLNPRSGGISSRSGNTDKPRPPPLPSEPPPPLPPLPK
Chain of CDK9/cyclin T1 (P50750 whole entry): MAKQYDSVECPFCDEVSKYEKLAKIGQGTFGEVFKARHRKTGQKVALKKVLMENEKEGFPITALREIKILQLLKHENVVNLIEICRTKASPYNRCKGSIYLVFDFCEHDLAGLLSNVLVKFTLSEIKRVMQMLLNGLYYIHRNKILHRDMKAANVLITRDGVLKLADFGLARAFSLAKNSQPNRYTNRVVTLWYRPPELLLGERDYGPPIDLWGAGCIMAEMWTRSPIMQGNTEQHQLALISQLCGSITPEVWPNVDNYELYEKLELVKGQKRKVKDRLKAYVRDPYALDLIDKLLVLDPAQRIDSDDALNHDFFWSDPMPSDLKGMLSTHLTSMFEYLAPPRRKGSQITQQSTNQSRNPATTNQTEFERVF
Chain of CDK12/Cyclin K (O75909 whole entry): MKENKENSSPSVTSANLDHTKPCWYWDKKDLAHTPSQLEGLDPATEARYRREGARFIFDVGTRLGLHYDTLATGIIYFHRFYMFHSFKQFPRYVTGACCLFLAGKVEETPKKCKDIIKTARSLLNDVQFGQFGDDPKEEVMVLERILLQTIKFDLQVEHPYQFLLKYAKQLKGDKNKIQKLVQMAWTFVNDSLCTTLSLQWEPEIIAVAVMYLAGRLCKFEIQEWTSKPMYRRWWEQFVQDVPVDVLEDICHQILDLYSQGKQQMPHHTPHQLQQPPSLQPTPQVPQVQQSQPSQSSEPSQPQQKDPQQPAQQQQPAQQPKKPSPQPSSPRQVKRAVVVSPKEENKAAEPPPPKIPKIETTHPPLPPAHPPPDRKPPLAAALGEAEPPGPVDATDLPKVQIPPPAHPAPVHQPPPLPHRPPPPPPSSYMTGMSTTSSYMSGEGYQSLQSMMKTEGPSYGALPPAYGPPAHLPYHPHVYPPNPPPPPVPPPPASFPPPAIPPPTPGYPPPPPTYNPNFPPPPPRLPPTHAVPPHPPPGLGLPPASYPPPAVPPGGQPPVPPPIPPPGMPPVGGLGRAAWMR
Chain of CDK12/Cyclin K (Q9NYV4 whole entry): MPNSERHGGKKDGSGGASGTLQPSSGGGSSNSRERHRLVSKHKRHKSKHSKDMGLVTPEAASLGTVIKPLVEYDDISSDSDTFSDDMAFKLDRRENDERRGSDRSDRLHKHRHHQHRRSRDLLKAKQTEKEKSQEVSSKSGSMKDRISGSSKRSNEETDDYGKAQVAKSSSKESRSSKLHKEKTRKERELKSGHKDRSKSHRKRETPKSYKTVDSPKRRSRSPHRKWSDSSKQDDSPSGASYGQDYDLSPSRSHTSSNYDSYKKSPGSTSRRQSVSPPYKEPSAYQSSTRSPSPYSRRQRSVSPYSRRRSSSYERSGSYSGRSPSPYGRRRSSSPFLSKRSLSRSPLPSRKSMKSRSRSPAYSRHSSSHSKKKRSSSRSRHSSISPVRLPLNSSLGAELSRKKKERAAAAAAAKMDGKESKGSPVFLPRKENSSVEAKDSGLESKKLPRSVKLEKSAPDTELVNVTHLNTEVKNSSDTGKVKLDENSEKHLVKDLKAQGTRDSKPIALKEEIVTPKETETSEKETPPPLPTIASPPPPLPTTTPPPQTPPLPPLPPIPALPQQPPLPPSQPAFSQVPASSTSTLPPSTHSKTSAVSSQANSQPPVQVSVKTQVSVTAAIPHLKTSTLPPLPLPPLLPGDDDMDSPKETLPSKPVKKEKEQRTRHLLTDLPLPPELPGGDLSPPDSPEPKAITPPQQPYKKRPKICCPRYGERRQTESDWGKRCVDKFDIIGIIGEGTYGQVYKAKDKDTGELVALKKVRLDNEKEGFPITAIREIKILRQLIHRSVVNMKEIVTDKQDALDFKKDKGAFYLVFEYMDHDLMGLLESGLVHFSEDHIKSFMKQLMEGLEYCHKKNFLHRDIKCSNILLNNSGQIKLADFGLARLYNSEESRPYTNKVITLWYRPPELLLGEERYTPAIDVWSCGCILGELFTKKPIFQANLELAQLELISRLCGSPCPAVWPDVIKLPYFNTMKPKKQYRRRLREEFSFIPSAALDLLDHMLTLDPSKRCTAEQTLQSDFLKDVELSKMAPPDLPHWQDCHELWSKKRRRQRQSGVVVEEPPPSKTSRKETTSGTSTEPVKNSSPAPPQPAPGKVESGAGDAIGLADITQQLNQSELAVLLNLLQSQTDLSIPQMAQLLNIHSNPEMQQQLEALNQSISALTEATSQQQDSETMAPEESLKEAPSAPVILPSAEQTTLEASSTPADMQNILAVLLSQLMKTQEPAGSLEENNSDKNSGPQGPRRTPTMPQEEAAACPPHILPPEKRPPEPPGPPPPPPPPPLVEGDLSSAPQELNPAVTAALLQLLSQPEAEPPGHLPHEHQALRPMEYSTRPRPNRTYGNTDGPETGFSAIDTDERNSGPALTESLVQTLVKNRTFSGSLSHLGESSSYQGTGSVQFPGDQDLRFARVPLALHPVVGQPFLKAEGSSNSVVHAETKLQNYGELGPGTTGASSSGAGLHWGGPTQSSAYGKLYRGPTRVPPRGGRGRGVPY
Chain of Cyclin-dependent kinase 13/Cyclin-K (Q14004 whole entry): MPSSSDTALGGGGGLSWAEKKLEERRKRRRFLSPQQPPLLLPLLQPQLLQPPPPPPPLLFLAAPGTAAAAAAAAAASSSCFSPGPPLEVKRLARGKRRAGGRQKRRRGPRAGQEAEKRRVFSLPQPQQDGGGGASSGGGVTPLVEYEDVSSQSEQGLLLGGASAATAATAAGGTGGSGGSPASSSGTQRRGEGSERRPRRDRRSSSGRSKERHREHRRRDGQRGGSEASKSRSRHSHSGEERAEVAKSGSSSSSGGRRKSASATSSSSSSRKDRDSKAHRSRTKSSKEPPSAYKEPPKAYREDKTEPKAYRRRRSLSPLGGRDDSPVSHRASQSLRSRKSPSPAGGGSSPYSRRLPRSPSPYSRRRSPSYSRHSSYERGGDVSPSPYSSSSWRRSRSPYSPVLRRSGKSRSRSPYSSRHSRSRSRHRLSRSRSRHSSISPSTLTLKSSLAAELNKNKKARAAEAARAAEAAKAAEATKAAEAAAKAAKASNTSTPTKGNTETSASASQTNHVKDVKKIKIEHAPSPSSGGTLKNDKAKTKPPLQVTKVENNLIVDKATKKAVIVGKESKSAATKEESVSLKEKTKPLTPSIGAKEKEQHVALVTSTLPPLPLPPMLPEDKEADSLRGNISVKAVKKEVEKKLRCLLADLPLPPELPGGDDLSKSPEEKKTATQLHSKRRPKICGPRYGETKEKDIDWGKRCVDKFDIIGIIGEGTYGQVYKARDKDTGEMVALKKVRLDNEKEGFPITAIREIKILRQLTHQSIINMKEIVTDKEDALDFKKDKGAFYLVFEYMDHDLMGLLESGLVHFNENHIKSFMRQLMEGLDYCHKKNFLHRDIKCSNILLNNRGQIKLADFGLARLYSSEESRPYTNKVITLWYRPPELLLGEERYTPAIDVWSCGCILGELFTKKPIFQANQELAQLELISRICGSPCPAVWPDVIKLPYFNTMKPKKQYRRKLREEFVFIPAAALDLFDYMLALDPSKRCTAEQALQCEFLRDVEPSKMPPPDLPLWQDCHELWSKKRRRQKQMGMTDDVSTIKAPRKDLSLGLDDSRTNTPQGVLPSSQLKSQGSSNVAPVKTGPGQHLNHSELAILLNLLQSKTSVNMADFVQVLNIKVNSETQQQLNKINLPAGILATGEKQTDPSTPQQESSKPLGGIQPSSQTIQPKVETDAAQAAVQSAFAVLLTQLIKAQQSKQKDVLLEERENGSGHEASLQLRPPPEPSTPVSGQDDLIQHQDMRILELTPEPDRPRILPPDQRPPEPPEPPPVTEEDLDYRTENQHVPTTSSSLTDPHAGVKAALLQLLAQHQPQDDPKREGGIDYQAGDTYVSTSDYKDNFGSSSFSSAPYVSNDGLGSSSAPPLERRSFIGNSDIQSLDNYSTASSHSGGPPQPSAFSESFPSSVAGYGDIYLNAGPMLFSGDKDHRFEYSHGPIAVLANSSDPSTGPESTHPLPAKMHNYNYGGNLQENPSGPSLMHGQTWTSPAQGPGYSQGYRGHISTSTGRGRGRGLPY
Chain of Cyclin-dependent kinase 13/Cyclin-K (O75909 whole entry, further chain): as the sequence (O75909 whole entry) above

IC50 [1]: > 1000 nM
IC50 [3]: 22 nM
GI50 (OCI-LY19): 465 nM
IC50 [4]: 4 nM
IC50 (CDK12/Cyclin K): 64 nM
IC50 (CDK9/cyclin T1): 20 nM
IC50 [21]: 39 nM
SMILES: NCCSc1nc(NCc2ccc(-n3cccn3)cc2)c2[nH]nc(C3CCC3)c2n1
Activity (MINO [2]): Active
Activity (MINO [5]): Dde
GI50 [6]: 54 nM
Activity (MINO [7]): Dde
Activity (MINO [8]): Active
GI50 [9]: 10 nM
Activity (MINO [10]): Active
GI50 (SUD4): 28 nM
Activity (MINO [11]): Dde
GI50 [12]: 10 nM
Activity (VFN-D2 [13]): Active
Activity (MINO [14]): Active
GI50 (DB): 20 nM
Activity (MINO [15]): Dde
Activity (MINO [16]): Dde
GI50 (NU-DUL-1): 15 nM
Activity (MINO [17]): Active
GI50 (U2932): 55 nM
Activity (MINO [18]): Dde
Activity (VFN-D2 [19]): Active
GI50 [20]: 11 nM
Activity (MINO [22]): Dde
